Laboratory results published in the supplement of paper PMC10307832.

Tests used:
Assay in all cases: relative viability (nuclei count vs DMSO), 5 days (fraction); higher = more cells survive
COR-L 105 = system: COR-L 105
Summary of the method: (§1)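 Relative viability divides the nuclei count in treated wells by that in vehicle wells. Lung cancer cell lines were seeded in 1536-well plates, dosed by pin tool the next day, and fixed and stained after 5 days in one step with final 0.05% Triton X-100, 1% formaldehyde and 1 ug/ml Hoechst. Dosing was a single drug or a fixed anchor-drug dose plus five library-drug doses (not always all listed) in √10 steps, and values are medians of duplicate plates imaged at 4×.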

LCLC-103H = system: LCLC-103H
Summary of the method: as §1

LK-2 = system: LK-2
Summary of the method: as §1

NCI-H1355 = system: NCI-H1355
Summary of the method: as §1

NCI-H1623 = system: NCI-H1623
Summary of the method: as §1

NCI-H1666 = system: NCI-H1666
Summary of the method: as §1

NCI-H520 = system: NCI-H520
Summary of the method: as §1

NCI-H522 = system: NCI-H522
Summary of the method: as §1

A549 = system: A549
Summary of the method: as §1

Calu-6 = system: Calu-6
Summary of the method: as §1

EBC-1 = system: EBC-1
Summary of the method: as §1

IA-LM = system: IA-LM
Summary of the method: as §1

NCI-H1299 = system: NCI-H1299
Summary of the method: as §1

NCI-H1648 = system: NCI-H1648
Summary of the method: as §1

NCI-H1703 = system: NCI-H1703
Summary of the method: as §1

`Nc1ccn([C@@H]2O[C@H](CO)[C@@H](O)[C@@H]2O)c(=O)n1` [Cytarabine] + Cc1nc(Nc2ncc(C(=O)Nc3c(C)cccc3Cl)s2)cc(N2CCN(CCO)CC2)n1 [Dasatinib] (partner 0.075 µM) was tested, and the relative viability (COR-L 105; first compound 0.005 µM) was 0.314, the relative viability (COR-L 105; first compound 0.01581 µM) was 0.311 and the relative viability (COR-L 105; first compound 0.05 µM) was 0.293. For the same compound, the relative viability (COR-L 105; first compound 0.1581 µM) was 0.196, the relative viability (COR-L 105; first compound 0.5 µM) was 0.187 and the relative viability (LCLC-103H; first compound 0.005 µM) was 0.449. The relative viability (LCLC-103H; first compound 0.01581 µM) was 0.507, the relative viability (LCLC-103H; first compound 0.05 µM) was 0.486 and the relative viability (LCLC-103H; first compound 0.1581 µM) was 0.353. The relative viability (LCLC-103H; first compound 0.5 µM) was 0.445, the relative viability (LK-2; first compound 0.005 µM) was 0.309 and the relative viability (LK-2; first compound 0.01581 µM) was 0.27. It also gave a relative viability (LK-2; first compound 0.05 µM) of 0.236, a relative viability (LK-2; first compound 0.1581 µM) of 0.157 and a relative viability (LK-2; first compound 0.5 µM) of 0.163. The relative viability (NCI-H1355; first compound 0.005 µM) was 0.641, the relative viability (NCI-H1355; first compound 0.01581 µM) was 0.672 and the relative viability (NCI-H1355; first compound 0.05 µM) was 0.486. It also gave a relative viability (NCI-H1355; first compound 0.1581 µM) of 0.352, a relative viability (NCI-H1355; first compound 0.5 µM) of 0.369 and a relative viability (NCI-H1623; first compound 0.005 µM) of 0.479. For the same compound, the relative viability (NCI-H1623; first compound 0.01581 µM) was 0.449, the relative viability (NCI-H1623; first compound 0.05 µM) was 0.286 and the relative viability (NCI-H1623; first compound 0.1581 µM) was 0.471. It also gave a relative viability (NCI-H1623; first compound 0.5 µM) of 0.291, a relative viability (NCI-H1666; first compound 0.005 µM) of 0.773 and a relative viability (NCI-H1666; first compound 0.01581 µM) of 0.725. It also gave a relative viability (NCI-H1666; first compound 0.05 µM) of 0.642, a relative viability (NCI-H1666; first compound 0.1581 µM) of 0.396 and a relative viability (NCI-H1666; first compound 0.5 µM) of 0.394. The relative viability (NCI-H520; first compound 0.005 µM) was 0.218, the relative viability (NCI-H520; first compound 0.01581 µM) was 0.199 and the relative viability (NCI-H520; first compound 0.05 µM) was 0.263. The relative viability (NCI-H520; first compound 0.1581 µM) was 0.187, the relative viability (NCI-H520; first compound 0.5 µM) was 0.142 and the relative viability (NCI-H522; first compound 0.005 µM) was 0.935. For the same compound, the relative viability (NCI-H522; first compound 0.01581 µM) was 0.802, the relative viability (NCI-H522; first compound 0.05 µM) was 0.769 and the relative viability (NCI-H522; first compound 0.1581 µM) was 0.562. For the same compound, the relative viability (NCI-H522; first compound 0.5 µM) was 0.55.
Compound `CC(=O)O[C@@]12CO[C@@H]1C[C@H](O)[C@@]1(C)C(=O)[C@H](O)C3=C(C)[C@@H](OC(=O)[C@H](O)[C@@H](NC(=O)OC(C)(C)C)c4ccccc4)C[C@@](O)([C@@H](OC(=O)c4ccccc4)[C@H]21)C3(C)C` [Docetaxel] + O=C(c1cc(Cc2n[nH]c(=O)c3ccccc23)ccc1F)N1CCN(C(=O)C2CC2)CC1 [Olaparib] (partner 8 µM) has a relative viability (A549; first compound 0.0002 µM) of 0.341, a relative viability (A549; first compound 0.000632 µM) of 0.0796 and a relative viability (A549; first compound 0.002 µM) of 0.0511. For the same compound, the relative viability (A549; first compound 0.006325 µM) was 0.0681, the relative viability (A549; first compound 0.02 µM) was 0.0279 and the relative viability (COR-L 105; first compound 0.0002 µM) was 0.8. It also gave a relative viability (COR-L 105; first compound 0.000632 µM) of 0.591, a relative viability (COR-L 105; first compound 0.002 µM) of 0.461 and a relative viability (COR-L 105; first compound 0.006325 µM) of 0.539. It also gave a relative viability (COR-L 105; first compound 0.02 µM) of 0.331, a relative viability (Calu-6; first compound 0.0002 µM) of 0.604 and a relative viability (Calu-6; first compound 0.000632 µM) of 0.454. It also gave a relative viability (Calu-6; first compound 0.002 µM) of 0.243, a relative viability (Calu-6; first compound 0.006325 µM) of 0.128 and a relative viability (Calu-6; first compound 0.02 µM) of 0.0895. For the same compound, the relative viability (EBC-1; first compound 0.0002 µM) was 0.579, the relative viability (EBC-1; first compound 0.000632 µM) was 0.358 and the relative viability (EBC-1; first compound 0.002 µM) was 0.213. It also gave a relative viability (EBC-1; first compound 0.006325 µM) of 0.217, a relative viability (EBC-1; first compound 0.02 µM) of 0.162 and a relative viability (IA-LM; first compound 0.0002 µM) of 0.687. For the same compound, the relative viability (IA-LM; first compound 0.000632 µM) was 0.326, the relative viability (IA-LM; first compound 0.002 µM) was 0.153 and the relative viability (IA-LM; first compound 0.006325 µM) was 0.0861. The relative viability (IA-LM; first compound 0.02 µM) was 0.074, the relative viability (LCLC-103H; first compound 0.0002 µM) was 0.744 and the relative viability (LCLC-103H; first compound 0.000632 µM) was 0.803. For the same compound, the relative viability (LCLC-103H; first compound 0.002 µM) was 0.748, the relative viability (LCLC-103H; first compound 0.006325 µM) was 0.643 and the relative viability (LCLC-103H; first compound 0.02 µM) was 0.481. The relative viability (LK-2; first compound 0.0002 µM) was 0.599, the relative viability (LK-2; first compound 0.000632 µM) was 0.249 and the relative viability (LK-2; first compound 0.002 µM) was 0.156. It also gave a relative viability (LK-2; first compound 0.006325 µM) of 0.118, a relative viability (LK-2; first compound 0.02 µM) of 0.0792 and a relative viability (NCI-H1299; first compound 0.0002 µM) of 0.95. For the same compound, the relative viability (NCI-H1299; first compound 0.000632 µM) was 0.9, the relative viability (NCI-H1299; first compound 0.002 µM) was 0.628 and the relative viability (NCI-H1299; first compound 0.006325 µM) was 0.351. It also gave a relative viability (NCI-H1299; first compound 0.02 µM) of 0.241, a relative viability (NCI-H1355; first compound 0.0002 µM) of 0.732 and a relative viability (NCI-H1355; first compound 0.000632 µM) of 0.533. It also gave a relative viability (NCI-H1355; first compound 0.002 µM) of 0.353, a relative viability (NCI-H1355; first compound 0.006325 µM) of 0.203 and a relative viability (NCI-H1355; first compound 0.02 µM) of 0.164. The relative viability (NCI-H1648; first compound 0.0002 µM) was 0.773, the relative viability (NCI-H1648; first compound 0.000632 µM) was 0.563 and the relative viability (NCI-H1648; first compound 0.002 µM) was 0.338. It also gave a relative viability (NCI-H1648; first compound 0.006325 µM) of 0.279, a relative viability (NCI-H1648; first compound 0.02 µM) of 0.21 and a relative viability (NCI-H1666; first compound 0.0002 µM) of 0.786. It also gave a relative viability (NCI-H1666; first compound 0.000632 µM) of 0.673, a relative viability (NCI-H1666; first compound 0.002 µM) of 0.721 and a relative viability (NCI-H1666; first compound 0.006325 µM) of 0.703. For the same compound, the relative viability (NCI-H1666; first compound 0.02 µM) was 0.573, the relative viability (NCI-H1703; first compound 0.0002 µM) was 0.372 and the relative viability (NCI-H1703; first compound 0.000632 µM) was 0.538. It also gave a relative viability (NCI-H1703; first compound 0.002 µM) of 0.204, a relative viability (NCI-H1703; first compound 0.006325 µM) of 0.174 and a relative viability (NCI-H1703; first compound 0.02 µM) of 0.0787. It also gave a relative viability (NCI-H520; first compound 0.0002 µM) of 0.31, a relative viability (NCI-H520; first compound 0.000632 µM) of 0.286 and a relative viability (NCI-H520; first compound 0.002 µM) of 0.22. It also gave a relative viability (NCI-H520; first compound 0.006325 µM) of 0.165, a relative viability (NCI-H520; first compound 0.02 µM) of 0.132 and a relative viability (NCI-H522; first compound 0.0002 µM) of 0.653. The relative viability (NCI-H522; first compound 0.000632 µM) was 0.459, the relative viability (NCI-H522; first compound 0.002 µM) was 0.532 and the relative viability (NCI-H522; first compound 0.006325 µM) was 0.499. The relative viability (NCI-H522; first compound 0.02 µM) was 0.377.
